Test results taken from paper PMC6983048 (Molecules, 2019).
Read-outs that look alike come from different tables or passages of the source.

Key:
human DHFR (hDHFR) = conditions: relative to TMP; cited from earlier work
pBR322 plasmid [1] = test: Ethidium bromide assay, DNA-binding effects on plasmid pBR322; conditions: for Decrease of Fluorescence: 10 μM compound, plasmid pBR322 with ethidium bromide, 25 °C 30 min, % fluorescence relative to controls (no drug = 100%); for Binding to DNA (pBR322 plasmid), in words: ethidium bromide assay
Experimental: Each well of a 96-well plate was loaded with Tris buffer containing ethidium bromide (0.1 M Tris, 1 M NaCl, pH 8.0, 0.5 mM EtBr final concentration, 100 μL). […] Fluorescence readings are reported as % fluorescence relative to the controls.

T4 coliphage DNA [2] = test: Ethidium displacement assay, DNA-binding constants; conditions: apparent association constant
Experimental: (§1) The fluorescence of DNA solutions (calf thymus DNA, T4 coliphage DNA, poly(dA-dT)2, and poly(dG-dC)2 with the investigated compound (final concentrations 10, 50, 100 µM) was measured by the fluorescence spectrophotometer Infinite M200 TECAN at room temperature according to the procedure described above. Then, the concentration, which reduced fluorescence to 50% was determined for each compound. The data points of fluorescence intensity were fitted to the theoretical curves, with one or two different iterative nonlinear least squares computer routines. The apparent binding constant was calculated from KEtBr [EtBr] = Kapp [drug], where [drug] = the concentration of the tested compound at 50% reduction of fluorescence and KEtBr and [EtBr] are known. TMP and MTX were also investigated.

calf thymus DNA [3] = test: Ethidium displacement assay, DNA-binding constants; conditions: apparent association constant
Experimental: as §1

poly(dA-dT)2 [4] = test: Ethidium displacement assay, DNA-binding constants; conditions: apparent association constant
Experimental: as §1

poly(dG-dC)2 [5] = test: Ethidium displacement assay, DNA-binding constants; conditions: apparent association constant
Experimental: as §1

[6] = target: T1, recombinant human DHFR enzyme (Homo sapiens, UniProt P00374); test: Dihydrofolate reductase (DHFR) inhibition assay; format: biochemical; conditions: pH 7.5, 22 °C, absorbance 340 nm
T1 construct: purchased
T1 sequence (P00374 1-187): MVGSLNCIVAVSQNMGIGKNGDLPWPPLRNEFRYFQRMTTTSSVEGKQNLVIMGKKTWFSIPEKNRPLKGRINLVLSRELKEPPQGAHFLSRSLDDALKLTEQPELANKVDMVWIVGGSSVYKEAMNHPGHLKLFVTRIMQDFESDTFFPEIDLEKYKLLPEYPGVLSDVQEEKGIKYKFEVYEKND
Experimental: The procedure for detection of DHFR activity inhibition included preparation of a test mixture in a 1.0 mL quartz cuvette for the spectrophotometric method. Assay buffer—1× for DHFR (pH 7.5) and 1.5 × 10^−3 units of DHFR were added to the appropriate tube and thoroughly mixed. […] After mixing accurately, the reaction was initiated by adding 10 mM dihydrofolic acid (5 µL for each reaction) and a kinetics program was immediately started. The changes in absorbance (ΔOD/ min) were measured by the spectrophotometer Specord 200Plus (Analytikjena, Germany) at 340 nm and 22 °C, and the kinetic program (reading every 15 s for 2.5 min) according to the instructions supplied with the set and recommended by the producer.

[7] = system: poly(dA-dT)2 (DNA, polymer) AT; test: ethidium bromide displacement fluorescence; conditions: Na+ 1 M; 0.1 M Tris pH 8.0, room temperature; ethidium displaced; apparent
[8] = system: poly(dG-dC)2 (DNA, polymer) GC; test: ethidium bromide displacement fluorescence; conditions: Na+ 1 M; 0.1 M Tris pH 8.0, room temperature; ethidium displaced; apparent
DHFR = system: DHFR; set-up: method as in PMID 30991189; conditions: cited from earlier work
calf thymus DNA [9] = system: calf thymus DNA; set-up: method as in PMID 2540332; conditions: KEtBr, known constant of ethidium bromide; cited from earlier work
T4 coliphage DNA [10] = system: T4 coliphage DNA; set-up: method as in PMID 2540332; conditions: KEtBr, known constant of ethidium bromide; cited from earlier work
poly(dA-dT)2 [11] = system: poly(dA-dT)2; set-up: method as in PMID 2540332; conditions: KEtBr, known constant of ethidium bromide; cited from earlier work
poly(dG-dC)2 [12] = system: poly(dG-dC)2; set-up: method as in PMID 2540332; conditions: KEtBr, known constant of ethidium bromide; cited from earlier work
hDHFR = system: hDHFR; set-up: method as in PMID 28152430; conditions: Wang's compounds; read-out: IC50 (Figure 1); cited from earlier work
pBR322 plasmid [13] = system: pBR322 plasmid; set-up: method as in PMID 27008800; conditions: same conditions; cited from earlier work
[14] = Sabry's compounds, read-out: IC50 (Figure 1)
[15] = read-out: DHFR inhibitory potency IC50

CCc1nc(N)nc(N)c1C#CCc1cc(OC)c(OC)c(OC)c1 [C]
potency greater than TMP (human DHFR (hDHFR)): 3500 fold

COc1cc(C(=O)Nc2cnc(N)nc2)cc(OC)c1OC [Compound 1, N-(2-Aminopyrimidin-5-yl)-3,4,5-Trimethoxybenzamide]
Decrease of Fluorescence (pBR322 plasmid [1]): 71.43%
Kapp T4 DNA (T4 coliphage DNA [2]): 290000 M⁻¹
Kapp Calf Thymus DNA (calf thymus DNA [3]): 240000 M⁻¹
Kapp Poly (dA-dT)2 (poly(dA-dT)2 [4]): 1.17e+06 M⁻¹
Kapp Poly (dG-dC)2 (poly(dG-dC)2 [5]): 130000 M⁻¹
IC50 [6]: 21.8 µM
Kapp [7]: 11.7 ± 0.2 × 10^5 M^-1
Kapp [8]: 1.3 ± 0.2 × 10^5 M^-1

COc1cc(CC(=O)Nc2cnc(N)nc2)cc(OC)c1OC [Compound 2, N-(2-Aminopyrimidin-5-yl)-2-(3,4,5-Trimethoxyphenyl)Acetamide]
Decrease of Fluorescence (pBR322 plasmid [1]): 45.18%
Kapp T4 DNA (T4 coliphage DNA [2]): 110000 M⁻¹
Kapp Calf Thymus DNA (calf thymus DNA [3]): 440000 M⁻¹
Kapp Poly (dA-dT)2 (poly(dA-dT)2 [4]): 390000 M⁻¹
Kapp Poly (dG-dC)2 (poly(dG-dC)2 [5]): 80000 M⁻¹
IC50 [6]: 0.99 µM
Kapp [7]: 3.9 ± 0.2 × 10^5 M^-1
Kapp [8]: 0.8 ± 0.2 × 10^5 M^-1

COc1cc(CCC(=O)Nc2cnc(N)nc2)cc(OC)c1OC [Compound 3, N-(2-Aminopyrimidin-5-yl)-3-(3,4,5-Trimethoxyphenyl)Propanamide]
Decrease of Fluorescence (pBR322 plasmid [1]): 69.92%
Kapp T4 DNA (T4 coliphage DNA [2]): 780000 M⁻¹
Kapp Calf Thymus DNA (calf thymus DNA [3]): 370000 M⁻¹
Kapp Poly (dA-dT)2 (poly(dA-dT)2 [4]): 360000 M⁻¹
Kapp Poly (dG-dC)2 (poly(dG-dC)2 [5]): 50000 M⁻¹
Kapp [7]: 3.6 ± 0.2 × 10^5 M^-1
Kapp [8]: 0.5 ± 0.2 × 10^5 M^-1

COc1cc(C(=O)Nc2ccc(N)cc2)cc(OC)c1OC [Compound 4, N-(4-Aminophenyl)-3,4,5-Trimethoxybenzamide]
Decrease of Fluorescence (pBR322 plasmid [1]): 80.43%
Kapp T4 DNA (T4 coliphage DNA [2]): 390000 M⁻¹
Kapp Calf Thymus DNA (calf thymus DNA [3]): 590000 M⁻¹
Kapp Poly (dA-dT)2 (poly(dA-dT)2 [4]): 790000 M⁻¹
Kapp Poly (dG-dC)2 (poly(dG-dC)2 [5]): 160000 M⁻¹
IC50 [6]: 1.02 µM
Kapp [7]: 7.9 ± 0.2 × 10^5 M^-1
Kapp [8]: 1.6 ± 0.2 × 10^5 M^-1

COc1cc(CC(=O)Nc2ccc(N)cc2)cc(OC)c1OC [Compound 5, N-(4-Aminophenyl)-2-(3,4,5 Trimethoxyphenyl)Acetamide]
Decrease of Fluorescence (pBR322 plasmid [1]): 69.17%
Kapp T4 DNA (T4 coliphage DNA [2]): 680000 M⁻¹
Kapp Calf Thymus DNA (calf thymus DNA [3]): 520000 M⁻¹
Kapp Poly (dA-dT)2 (poly(dA-dT)2 [4]): 1.4e+06 M⁻¹
Kapp Poly (dG-dC)2 (poly(dG-dC)2 [5]): 300000 M⁻¹
IC50 [6]: 15.9 µM
Kapp [7]: 14 ± 0.2 × 10^5 M^-1
Kapp [8]: 3.0 ± 0.2 × 10^5 M^-1

COc1cc(CCC(=O)Nc2ccc(N)cc2)cc(OC)c1OC [Compound 6, N-(4-Aminophenyl)-3-(3,4,5-Trimethoxyphenyl)Propanamide]
Decrease of Fluorescence (pBR322 plasmid [1]): 71.43%
Kapp T4 DNA (T4 coliphage DNA [2]): 90000 M⁻¹
Kapp Calf Thymus DNA (calf thymus DNA [3]): 460000 M⁻¹
Kapp Poly (dA-dT)2 (poly(dA-dT)2 [4]): 420000 M⁻¹
Kapp Poly (dG-dC)2 (poly(dG-dC)2 [5]): 110000 M⁻¹
IC50 [6]: 15.1 µM
Kapp [7]: 4.2 ± 0.2 × 10^5 M^-1
Kapp [8]: 1.1 ± 0.2 × 10^5 M^-1

COc1ccc(C(=O)Nc2ccc3nc(SC)n(-c4ccc(OC)cc4)c(=O)c3c2)cc1 [D]
IC50 (DHFR; [14]): 200 µM
IC50 (DHFR; [15]): 0.2 µM

COc1ccc(-n2c(SC)nc3ccc(NC(=O)C4CCCS4)cc3c2=O)cc1 (stereo not drawn) [E]
IC50 (DHFR; [14]): 200 µM

CC[n+]1c(-c2ccccc2)c2cc(N)ccc2c2ccc(N)cc21 [EtBr, Ethidium bromide]
Kapp Calf Thymus DNA (calf thymus DNA [9]): 1e+07 M⁻¹
Kapp T4 DNA (T4 coliphage DNA [10]): 1e+07 M⁻¹
Kapp Poly (dA-dT)2 (poly(dA-dT)2 [11]): 95 ^b* × 10^5 M^−1
Kapp Poly (dG-dC)2 (poly(dG-dC)2 [12]): 9.9e+06 M⁻¹

COc1ccc(CCc2ccc3nc(N)nc(N)c3n2)cc1 [F]
IC50 (DHFR; [15]): 0.2 µM
IC50 (hDHFR): 760 µM

COc1cccc(CCc2ccc3nc(N)nc(N)c3n2)c1 [G]
IC50 (hDHFR): 450 µM

COc1cc(CCc2ccc3nc(N)nc(N)c3n2)cc(OC)c1OC [H]
IC50 (hDHFR): 290 µM

CN(Cc1cnc2nc(N)nc(N)c2n1)c1ccc(C(=O)N[C@@H](CCC(=O)O)C(=O)O)cc1 [MTX, methotrexate, reference compound]
Decrease of Fluorescence (pBR322 plasmid [1]): 100%
Binding to DNA (pBR322 plasmid), in words (pBR322 plasmid [1]): do not bind to DNA

Cn1cc(NC(=O)c2cc(NC(=O)CN=C(N)N)cn2C)cc1C(=O)NCCC(=N)N [NT, netropsin, reference compound]
Decrease of Fluorescence (pBR322 plasmid [1]): 74%
Kapp T4 DNA (T4 coliphage DNA [2]): 830000 M⁻¹
Kapp Calf Thymus DNA (calf thymus DNA [3]): 870000 M⁻¹
Kapp Poly (dA-dT)2 (poly(dA-dT)2 [4]): 8.75e+07 M⁻¹
Kapp Poly (dG-dC)2 (poly(dG-dC)2 [5]): 250000 M⁻¹
DNA-binding effect (fluorescence) (pBR322 plasmid [13]): 74%
Kapp [7]: 8.75e+07 M⁻¹
Kapp [8]: 250000 M⁻¹

COc1cc(Cc2cnc(N)nc2N)cc(OC)c1OC [TMP, 2,4-diamino-5-(3,4,5-trimethoxybenzyl) pyrimidine, reference compound]
Decrease of Fluorescence (pBR322 plasmid [1]): 100%
Binding to DNA (pBR322 plasmid), in words (pBR322 plasmid [1]): do not bind to DNA
